pIC50, pKi: −log10 of the molar value. Several values for one entry are separate records, joined by “and”; a condition that tells them apart may be missing. Equal entries are not always repeated. Where two headings read alike, the source gives them in different places.
Columns and labels:
[1] = tested on: formaldehyde induced nociceptive behaviour; assay: Formaldehyde test in mice, second (late) phase; type: in vivo, mouse; settings: mouse, read-out: inhibition formaldehyde test (n = 10); for inhibition in vivo at 0.3 mg/kg: 0.3 mg/kg body weight po
[2] = tested on: capsaicin induced hypothermie; assay: Hypothermie assay in the mouse (capsaicin induced hypothermie); type: in vivo; settings: as printed in this column, read-out: inhibition hypothermie (n = 5)
[3] = target: T1, vanilloid receptor 1 (VR1/TRPV1) of the rat species (Rattus norvegicus, UniProt O35433); assay: FLIPR Ca2+ influx assay on rat dorsal root ganglia cells (pharmacological method I); type: cell-based
T1 construct: The spinal column is removed from decapitated rats; from tissue; host or cells: primary cells dissociated from rat dorsal root ganglia
How it was run: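 Primary rat dorsal root ganglion cells loaded with 2 μM Fluo-4, Ca2+ influx read on FLIPR as peak fluorescence. Triplicates, at least 3 independent experiments.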

vanilloid receptor (VR1) [4] = target: T2, vanilloid receptor (VR1) (Homo sapiens, UniProt Q8NER1); assay: FLIPR Ca2+ influx assay on CHO K1 cells transfected with the VR1 gene (pharmacological method II); type: cell-based
T2 construct: expressed in transfected cells; host or cells: CHO K1 cells (ECACC), stably transfected

VR1/TRPV1 receptor = VR1/TRPV1 receptor (Homo sapiens, UniProt Q8NER1); assay: IC50 (human) after pH stimulus; type: cell-based
[5] = tested on: cold allodynia after chronic constriction injury; assay: Neuropathic pain in mice, Bennet model (chronic constriction injury, cold allodynia); type: in vivo; settings: mouse
Source text: VI. Neuropathic Pain in Mice
The efficacy of compounds of general formula I in the treatment of neuropathic pain is investigated by using the Bennet modell (chronic constriction injury; Bennett and Xie, 1988, Pain 33: 87-107.
NMRI mice (weight 16 to 18 g) under ketavet-rompun anaesthesia are supplied with three loose ligatures of the right nervus ischiaticus. The animals develop an oversensitivity to cold at the position of the pad that is innervated by the injured nerve which—after a recovery period of one week—is quantified over a period of three weeks by using a metal plate that is cooled to 4° C. (cold allodynia). The animals are observed for a period of 2 minutes on this plate and the number of brisk withdrawal reactions of the injured nerve is counted. […] The group size is n=10, the stastical significance of efficacy against allodynia (*=p<0.05) is determined by analysis of variance with repeated measurements and post hoc analysis with Bonferroni adjustment.

vanilloid receptor (VR1) [6] = target: T2, vanilloid receptor (VR1); assay: FLIPR Ca2+ influx assay on CHO K1 cells transfected with the VR1 gene (pharmacological method II); type: cell-based; settings: CHO-K1, read-out: inhibition in percent, Ki (human) Cap.
[7] = tested on: capsaicin induced hypothermie; assay: Hypothermie assay in the mouse (capsaicin induced hypothermie); type: in vivo; settings: 0.3 mg/kg body weight po; mouse; read-out: inhibition hypothermie (n = 5)
[8] = table 4, capsaicin, read-out: Ki (rat) Cap.
[9] = table 4, capsaicin, read-out: Ki (human) Cap.
[10] = read-out: inhibition in percent, IC50 (human) after pH stimulus
[11] = Table 2, displacement of capsaicin (100 nM), Cheng-Prusoff, read-out: Ki (rat)
[12] = Table 2, displacement of capsaicin (100 nM), Cheng-Prusoff, read-out: Ki (human)

T1 sequence (O35433 whole entry): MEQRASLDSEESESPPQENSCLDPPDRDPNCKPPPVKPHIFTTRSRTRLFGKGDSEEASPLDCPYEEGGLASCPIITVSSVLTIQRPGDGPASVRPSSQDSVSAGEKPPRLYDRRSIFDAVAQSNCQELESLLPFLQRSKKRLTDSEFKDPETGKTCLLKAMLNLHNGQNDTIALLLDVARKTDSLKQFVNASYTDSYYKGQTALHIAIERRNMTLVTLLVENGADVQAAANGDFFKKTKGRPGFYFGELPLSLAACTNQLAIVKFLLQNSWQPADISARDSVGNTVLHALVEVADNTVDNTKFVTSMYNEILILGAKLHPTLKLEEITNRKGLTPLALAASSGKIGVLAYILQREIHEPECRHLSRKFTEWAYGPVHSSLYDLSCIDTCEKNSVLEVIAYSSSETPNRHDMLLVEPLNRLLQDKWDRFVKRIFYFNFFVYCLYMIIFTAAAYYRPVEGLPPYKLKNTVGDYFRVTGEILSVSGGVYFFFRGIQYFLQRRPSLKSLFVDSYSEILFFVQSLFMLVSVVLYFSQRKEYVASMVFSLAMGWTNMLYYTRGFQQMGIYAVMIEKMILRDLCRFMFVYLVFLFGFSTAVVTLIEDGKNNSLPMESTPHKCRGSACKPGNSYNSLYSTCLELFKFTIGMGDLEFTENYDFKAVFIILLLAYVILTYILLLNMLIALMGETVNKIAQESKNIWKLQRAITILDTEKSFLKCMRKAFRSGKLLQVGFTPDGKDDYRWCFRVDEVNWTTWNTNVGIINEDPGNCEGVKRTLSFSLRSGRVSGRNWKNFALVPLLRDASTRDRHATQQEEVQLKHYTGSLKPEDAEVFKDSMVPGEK
T2 sequence (Q8NER1 whole entry): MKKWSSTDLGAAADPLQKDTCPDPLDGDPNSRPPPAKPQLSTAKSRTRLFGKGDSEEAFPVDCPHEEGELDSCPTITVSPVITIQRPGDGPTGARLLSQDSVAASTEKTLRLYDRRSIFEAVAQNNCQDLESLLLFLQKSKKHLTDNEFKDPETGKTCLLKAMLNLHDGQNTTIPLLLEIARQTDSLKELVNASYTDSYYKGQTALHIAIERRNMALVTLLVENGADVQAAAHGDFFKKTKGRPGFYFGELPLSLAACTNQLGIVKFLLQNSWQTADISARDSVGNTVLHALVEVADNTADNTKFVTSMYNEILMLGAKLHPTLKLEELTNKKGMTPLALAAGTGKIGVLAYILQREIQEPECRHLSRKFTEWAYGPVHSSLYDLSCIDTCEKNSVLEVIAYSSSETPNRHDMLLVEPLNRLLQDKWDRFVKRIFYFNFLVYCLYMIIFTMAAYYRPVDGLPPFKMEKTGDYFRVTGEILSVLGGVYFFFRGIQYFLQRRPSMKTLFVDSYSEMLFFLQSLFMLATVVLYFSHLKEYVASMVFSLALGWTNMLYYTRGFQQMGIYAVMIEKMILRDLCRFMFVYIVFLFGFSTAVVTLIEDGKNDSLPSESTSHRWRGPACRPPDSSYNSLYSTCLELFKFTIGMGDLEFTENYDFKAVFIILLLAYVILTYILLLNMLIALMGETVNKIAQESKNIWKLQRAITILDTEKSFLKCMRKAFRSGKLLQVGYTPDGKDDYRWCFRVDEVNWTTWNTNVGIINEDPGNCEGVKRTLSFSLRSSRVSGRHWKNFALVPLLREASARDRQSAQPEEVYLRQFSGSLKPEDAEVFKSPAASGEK
Sequence of VR1/TRPV1 receptor (Q8NER1 whole entry): as above

| pKi [3, 8] | pKi (vanilloid receptor (VR1) [4]; [9]) | pKi [3, 11] | pKi (vanilloid receptor (VR1) [4]; [12]) | pIC50 (VR1/TRPV1 receptor; Table 2) | melting point | SMILES | further results |
| --- | --- | --- | --- | --- | --- | --- | --- |
| 8.66 | 8.42 |  |  |  |  | CC(C(=O)NCc1ccc(C(C)(C)C)cc1OCC(C)(C)C)c1ccc(NS(C)(=O)=O)c(F)c1 (stereo not shown) [Example 152, N-[4-tert-butyl-2-(2,2-dimethyl-propoxy)-benzyl]-2-(3-fluoro-4-methylsulfonamido-phenyl)-propionamide] | inhibition in vivo at 0.3 mg/kg [1]: 33%; inhibition at 10 µM ([2]; @ 10 μM): 63% |
| 7.50 and 6.63 | 7.41 |  |  |  |  | CC(C(=O)NCc1ccc(C(F)(F)F)nc1Nc1ccc(F)cc1)c1ccc(NS(C)(=O)=O)c(F)c1 (stereo not shown) [Example 112, 2-(3-fluoro-4-methylsulfonamido-phenyl)-N-[2-(4-fluoro-phenylamino)-6-trifluoromethyl-pyridin-3-ylmethyl]-propionamide] | inhibition in percent, IC50 (human) after pH stimulus (VR1/TRPV1 receptor; @ 10 μM): 64% @ 10 μM; inhibition at 25 µM (VR1/TRPV1 receptor; [10]): 67%; inhibition at 1 µM (vanilloid receptor (VR1) [6]; @ 1 μM, ne = no effect): 15% |
|  |  | 8.46 | 9.40 | 6.66 | 75 to 79 °C | CC(C(=O)NCc1ccc(C(F)(F)F)nc1N1CCCCC1)c1ccc(NS(C)(=O)=O)c(F)c1 (stereo not shown) [Example 2, 2-(3-fluoro-4-(methylsulfonamido)phenyl)-N-((2-(piperidin-1-yl)-6-(trifluoromethyl)pyridin-3-yl)methyl)propanamide] |  |
|  |  | 6.16 | 6.41 |  | 149 to 152 °C | Cc1nc(C(F)(F)F)ccc1CNC(=O)C(C)c1ccc(NS(C)(=O)=O)c(F)c1 (stereo not shown) [Example 1, 2-(3-fluoro-4-(methylsulfonamido)phenyl)-N-((2-methyl-6-(trifluoromethyl)pyridin-3-yl)methyl)propanamide] |  |

Continued, molecule first:

| SMILES | pKi [3, 8] | pKi (vanilloid receptor (VR1) [4]; [9]) | pKi [3, 11] | pKi (vanilloid receptor (VR1) [4]; [12]) | pIC50 (VR1/TRPV1 receptor; Table 2) | melting point | further results |
| --- | --- | --- | --- | --- | --- | --- | --- |
| CC(C(=O)NCc1ccc(C(C)(C)C)cc1OCC(C)(C)C)c1ccc(NS(C)(=O)=O)c(F)c1 (stereo not shown) [Compound 152] |  |  |  |  |  |  | inhibition in vivo at 1 mg/kg ([1]; 1 mg/kg body weight po): 24%; inhibition at 1 µM ([2]; @ 1 μM): 45% |
| CCCCCCOc1nc(C(F)(F)F)ccc1CNC(=O)C(C)c1ccc(NS(C)(=O)=O)c(F)c1 (stereo not shown) [Example 91, 2-(3-fluoro-4-methylsulfonamido-phenyl)-N-(2-hexyloxy-6-trifluoromethyl-pyridin-3-ylmethyl)-propionamide] |  | 9.30 |  |  |  |  | pKi ([3]; Ki (rat) Cap., table 4, capsaicin): 9.30; pIC50 (VR1/TRPV1 receptor; table 4): 7.52; inhibition Bennet model (n = 10) ([5]; 0.1 mg/kg body weight po): 0.1 po 30% |
| CC(C(=O)NCc1ccc(C(F)(F)F)nc1N1CCC(Cc2ccccc2)CC1)c1ccc(NS(C)(=O)=O)c(F)c1 (stereo not shown) [Example 104, N-(4-benzyl-6′-trifluoromethyl-3,4,5,6-tetrahydro-2H-[1,2′]bipyridinyl-3′-ylmethyl)-2-(3-fluoro-4-methylsulfonamido-phenyl)-propionamide] | 9.70 | 9.70 |  |  |  |  | pIC50 (VR1/TRPV1 receptor; table 4): 7.40; inhibition Bennet model (n = 10) ([5]; 0.0001 mg/kg body weight po): 0.0001 po 20% |
| CC(C(=O)NCc1ccc(C(F)(F)F)cc1N1CCCCC1)c1ccc(NS(C)(=O)=O)c(F)c1 (stereo not shown) [Example 3] |  |  | 8.59 | 8.77 | 6.87 | 126 to 127 °C |  |
| CC(C(=O)NCc1ccc(C(F)(F)F)nc1N1CCC(N2CCCC2)CC1)c1ccc(NS(C)(=O)=O)c(F)c1 (stereo not shown) [Example 165, 2-(3-fluoro-4-methylsulfonamido-phenyl)-N-(4-pyrrolidin-1-yl-6′-trifluoromethyl-3,4,5,6-tetrahydro-2H-[1,2′]bipyridinyl-3′-ylmethyl)-propionamide] |  |  |  |  |  |  | inhibition at 25 µM ([3]; @ 25 μM, read-out: inhibition in percent, Ki (rat) Cap.): 82%; inhibition at 10 µM (VR1/TRPV1 receptor; @ 10 μM, read-out: inhibition in percent, IC50 (human) after pH stimulus): 28%; inhibition at 25 µM (VR1/TRPV1 receptor; [10]): 40%; inhibition in vivo at 0.3 mg/kg [7]: 41%; inhibition in vivo at 0.3 mg/kg [1]: 29%; inhibition at 25 µM (vanilloid receptor (VR1) [6]; @ 25 μM): 76% |
| C[C@H](C(=O)NCc1ccc(C(F)(F)F)nc1N1CCCCC1)c1ccc(NS(C)(=O)=O)c(F)c1 [Example 10, (S)-2-(3-fluoro-4-(methylsulfonamido)phenyl)-N-((2-(piperidin-1-yl)-6-(trifluoromethyl)pyridin-3-yl)methyl)propanamide] |  |  | 8.96 | 9.52 | 7.19 | 75 to 79 °C |  |

Reference: US8710233B2 (Gruenenthal GmbH, priority 2005, dated 2014)
